# Columns and labels:
# [1] = test system: patients with acute moderate and severe TBI; assay: NOSTRA III phase III trial, clinical outcome (eGOS, therapy intensity level) in TBI patients; assay type: in vivo, human; conditions: for proportion of low TIL levels (3-10 points): patients of 18-39 years; for eGOS median at 6 months: placebo 5
# Description: Based on the results of the earlier phase II study, the NOSTRA III (NO Synthase in TRAumatic Brain Injury) phase III trial was designed to detect clinically relevant differences in clinical outcome (Extended Glasgow Outcome Score at 6 months after injury) as primary endpoint. In addition, the extracellular intracerebral glutamate levels and lactate levels of these TBI patients were also determined in an exploratory approach to monitor the metabolic state of the patients.
# Trials. 2020. A total of 224 evaluable patients with moderate and severe TBI were enrolled in 32 centres in Austria, France, Germany, Spain, and United Kingdom. The trial started on 24 Aug. 2016 with last-patient last-visit on 17 Jun. 2020.
# Patients between 18 and 60 years of age with Glasgow Coma Score ≥3 requiring intracranial pressure (ICP) monitoring were enrolled. Other inclusion criteria were TBI within the last 18 hours but at least 6 hours after the injury, which were expected to survive more than 24 hours after admission.
# The eGOS was determined by a face to face meeting by trained assessors.
# The null-hypothesis of no shift across the 8 ordered categories of eGOS for the two treatment groups was tested after six months based on a proportional odds model stratified by age (18-39 years and 40-60 years). […] Treatment and age (18-39 years and 40-60 years) were included in the model. The proportional odds assumption was tested using a Chi-Square Score Test.
# The main objective of the post hoc analyses was to estimate the effect size of VAS203 compared with placebo for the primary endpoint eGOS-I (eGOS-Interview) in the subgroups time to infusion ≤12 hours and >12 hours. Supportive analyses were conducted by age group (<40 years, ≥40 years) because age group was used as a stratification factor in the study. Comparability between treatment groups regarding demographics as well as severity and location of disease was investigated using similar methods as in the main CSR.
# The proportions of patients per eGOS-I level at 3 months and at 6 months were calculated. For the change in eGOS-I over time, the proportion of patients with changes from 3 to 6 months were calculated by eGOS-I level, and in addition categorised as decreased (i.e. any decrease in eGOS-I level from 3 to 6 months), unchanged (i.e. no change in eGOS-I level from 3 to 6 months), and increased (i.e. any increase in eGOS-I level from 3 to 6 months).
# Ordinal logistic regression was used for the analysis of eGOS-I at 3 months and at 6 months, including treatment group and age group (<40 years, ≥40 years) as factors in the model. Estimated odds ratios for the comparison of the VAS203 and placebo groups of >1 mean that eGOS-I was higher in the VAS203 group than in the placebo group across the 8 levels, whereas odds ratios of <1 mean that eGOS-I was lower in the VAS203 group than in the placebo group. Odds ratios together with their 95% CIs were used to estimate and assess the size of the treatment effect of VAS203 compared to placebo. Proportional […] were assumed as valid for all these analyses because ordinal logistic regression analysis is known to be robust against deviations from this assumption; also, the power of assumption checking would be low for small subgroups.
# Based on the time-dependent activation of pathologic cascades during the early phase after TBI and the benefits observed with an infusion of VAS203 during the initial 12 hours after TBI in the Phase IIa trial [Stover], a post-hoc-analysis was performed to determine whether patients in whom VAS203 was infused ≤12 hours after TBI, show better clinical improvement compared to patients in whom infusion was started >12 hours after TBI.
# [2] = test system: extracellular brain lactate level; assay: Brain microdialysis, extracellular cerebral lactate levels in TBI patients; assay type: in vivo, human
# Description: To monitor the metabolic condition of the patients, extracellular brain glutamate and lactate levels were measured. In more detail, the extracellular intracerebral glutamate and lactate levels measured here is the glutamate or lactate level in brain extracellular fluid (ECF). […] The measurements of the glutamate and lactate levels was carried out using established brain microdialysis (MD) methodology as described, for example, by Chamoun et al, example. Role of extracellular glutamate measured by cerebral microdialysis in severe traumatic brain injury. J Neurosurg. 2010 September; 113(3): 564-570.
# The microdialysis (MD) equipment was obtained from M Dialysis AB, Stockholm, Sweden, see www.mdialysis.com. The following equipment was used. • Cerebral MD catheters: CMA 70 • CMA 70 bolt catheter • CMA 71 high cut-off cerebral catheter • Pumps: CMA106=fixed flow rate, CMA107=flexible flow rate • Perfusion solution: Cerebral: Perfusion fluid CNS • Analyzers: CMA 600, ISCUS, ISCUSflex Time Point of MD Catheter Insertion • Aim: Obtain stable baseline values before infusing study drug • Ideal: By 14 hours after TBI or 4 hours before study drug infusion to allow for tissue adaptation, usually lasting 1-4 hours • Compromise: As soon as possible, within 4 hours after beginning study drug infusion Site of Cerebral MD Catheter Insertion • Aim: Monitor metabolic changes close to structural damage visible on routine CT scan • Contusion: Close to the contusion • Mixed lesions: Predominantly injured hemisphere • With bolt system: Right or left frontal lobe • Without bolt system: Right or left frontal/temporal/parietal area • If possible cerebral MD catheter should be placed ipsilateral to the ICP probe • Special care should be taken to avoid inducing injury to pre- and postcentral cortex • The position of the MD probe and the position of the ICP probe in the eCRF should be indicated.
# The cerebral glutamate and lactate levels were recorded every 1 h up to 5 days after the start of the infusion. Absolute values were be summarized per treatment group and for each time point by means of descriptive statistics. The 95% confidence intervals for the mean were calculated (normal approximation).
# For the analysis of the metabolic state, it was considered that under normal (physiological) conditions glutamate is maintained at low levels (micromolar) in the extracellular space (<2 μmol/L) and in plasma (50-100 μmol/L) to avoid excessive glutamate receptor activation. Within the different intracellular compartments glutamate is present in higher amounts (5-15 millimolar). In brain microdialysis, glutamate levels exceeding 10 μmol/L are considered elevated, higher glutamate levels are associated with worse outcome. In addition to the absolute levels, dynamic changes are also important in interpreting underlying pathology. In brain microdialysis and blood, lactate levels exceeding 2.5 millimol/L are considered pathologically elevated, reflecting insufficient metabolic/energetic stability which is further aggravated by insufficient oxygen supply.
compound,measurement,setting,value
"C[C@H](O)[C@H](O)C1CNc2nc(N)nc(N)c2N1 (mixture of isomers) [Ronopterin, 4-Amino-(6R,S)-5,6,7,8-tetrahydro-L-biopterin]",proportion of patients with Good Recovery,"[1]; 18-39 years, late infusion >12 hours, placebo 38%",30%
same,proportion of patients with Good Recovery,"[1]; 40-60 years, late infusion >12 hours, placebo 19%",20%
same,proportion of patients with Good Recovery,"[1]; patients aged 18-39 years, early infusion ≤12 hours, placebo 32%",45%
same,proportion of patients with Good Recovery,"[1]; patients aged 40-60 years, early infusion, placebo 8%",27%
same,proportion of low TIL levels (3-10 points),"[1]; second week after TBI, placebo 64%, p=0.0002",81%
same,proportion of low TIL levels (3-10 points),"[1]; placebo 62%, p=0.01",71%
same,NNT for Good Recovery,[1]; time to infusion <12 hours,8
same,increase of proportion of patients with a Good Recovery at 6 months compared to the Placebo group,[1]; time to infusion <12 hours,61%
same,proportion of patients with Good Recovery (eGOS 7 and 8),"[1]; time to infusion <12 hours, placebo 23%, ns",37%
same,eGOS median at 6 months,[1]; time to infusion >12 hours,5
same,proportion of patients with Good Recovery at 6 months,"[1]; time to infusion >12 hours, placebo 28%",25%
same,eGOS median at 6 months,"[1]; time to infusion ≤12 hours, not significant",6
same,overall eGOS-I rating at 6 months vs placebo (primary efficacy endpoint),"[1]; total dose 17 mg/kg infused for 48 hours, ordinal logistic regression",No difference
same,extracellular cerebral lactate levels,"[2]; 18 to 39 years, all times to infusion, patients reaching <2.5 millimol/L (FIG. 7A)",lower brain lactate levels compared to the placebo group
same,extracellular cerebral lactate levels,"[2]; 18 to 39 years, infusion >12 hours, a number of patients <2.5 millimol/L (FIG. 8C)",lower brain lactate levels than the placebo group
same,extracellular cerebral lactate levels,"[2]; 18 to 39 years, infusion ≤12 hours, a number of patients <2.5 millimol/L (FIG. 8A)",lower brain lactate levels than the placebo group
same,extracellular cerebral lactate levels,"[2]; 40 to 60 years, all times to infusion, all patients, higher than placebo (FIG. 7C)",≥ 2.5 millimol/L
same,extracellular cerebral lactate levels,"[2]; 40 to 60 years, infusion ≤12 hours, all patients, higher than placebo (FIG. 9A)",≥ 2.5 millimol/L
same,extracellular brain lactate levels,"[2]; within 120 hours after administration, stayed below threshold or only slightly elevated",< 2.5 millimol/L

# From patent US12465609B2, “Methods of treating patients suffering from a disease condition or disorder that is associated with an increased glutamate level” (veriNOS operations GmbH, priority 2022, dated 2025)
